{"source": "patent EP4653001A1", "about": "“TREATMENT, DIAGNOSIS AND/OR PROGNOSIS OF MITOCHONDRIAL DISEASES” (Universidad Autónoma de Madrid, priority 2024, dated 2025)", "system": "143B cell lines", "experiment": "Cell viability of CRISPR knock-out 143B cell lines treated with ETC inhibitors", "format": "cell-based", "procedure": "All cell lines, 143b, HeLa, U2OS, and transmitochondrial cybrids carrying mutation in CI (ND2), CIII (CytB) or CIV (Cox2) subunits, were maintained in DMEM high glucose (HyClone), 10% FBS and 1% P/S at 37°C with 5% CO2. Mitochondrial mutant cells were cultured with supplementation of 50 µg/mL uridine. The selected cancer cell lines with different levels of malic enzyme (HCC15, KYSE410, CAKI1, J82, MDAMB453, Colo320, NCIH1703) were obtained from the DSMZ-German Collection of Microorganisms and Cell Cultures GmbH and cultured in the same DMEM 10% FBS medium. OCI-Lys3 and RCH-ACV cell lines (cells in suspension), were obtained from the same repository and cultured in RPMI 10% FBS medium. Transfections for gain- and loss-of-function studies were performed according to the manufacturer's instructions using the polyfect reagent (Qiagen, 301107). For cell number and proliferation experiments, cells were seeded in 12 or 6-well plates and allowed to proliferate for the specified durations. Subsequently, cells were trypsinized and quantified using a hemocytometer (NanoEnTek, DHC-N01). Cell viability was quantified using propidium iodide (PI; 50 µg/ml) staining.\nGeneration of knockout cell lines using CRISPR-Cas9 technology was performed with the lenti-CRISPR v2 vector (Addgene #52961). Guide sequences are: • sgGFPT1, 5-[…]-3 (SEQ ID NO: 1); • sgG6PD, 5-[…]-3 (SEQ ID NO: 2); • sgPHGDH, 5-[…]-3 (SEQ ID NO: 3); • sgMPC1, 5-[…]-3 (SEQ ID NO: 4) • sgPC, 5-CAGGCCCGGAACACACGGA-3 (SEQ ID NO: 5); • sgACLY, 5-[…]-3 (SEQ ID NO: 6); • sgME1, 5-[…]-3 (SEQ ID NO: 7).\nTo investigate glucose-dependent alternative metabolic pathways that become essential upon ETC inhibition, we generated through CRISPR/Cas9 technology, knock-out (KO) 143B cell lines for each of the following rate-limiting enzymes and transporters. We selected glucose 6 phosphate dehydrogenase (G6PD) for the PPP, Glutamine-Fructose-6-Phosphate Transaminase 1 (GFPT1) for the hexosamine pathway, Phosphoglycerate Dehydrogenase (PHGDH) for the serine biosynthesis pathway and Mitochondrial Pyruvate Carrier 1 (MPC1) to prevent pyruvate entry into the mitochondria. These KO and Control cells were treated with two specific ETC inhibitors (Piericidin A that targets Complex I and Antimycin A that targets Complex III) and cell viability was assessed after 3 days of treatment. […] We took advantage of the fruit fly Drosophila melanogaster model, as it is cost- and time-efficient and recapitulate a wide range of phenotypes seen in patients with metabolic and mitochondrial disorders. We obtained flies carrying mutations in Zw and Pgd genes (named: Pgd^39 Zw^lo2a), corresponding to human orthologs G6PD and 6PGD respectively. […]", "data": [{"smiles": "CC=C(C)C(O)C(C)C=C(C)C=CCC(C)=CCc1nc(OC)c(OC)c(O)c1C", "note": "(centres unmarked) [Piericidin, Piericidin A]", "values": [{"measurement": "cell viability", "setting": "G6PD KO 143B cells, after 3 days of treatment", "value": "sensitive"}, {"measurement": "survival or proliferation", "setting": "KO cells for GFPT1, PHGDH or MPC1, after 3 days of treatment", "value": "no differences"}]}]}
